Test results published in the supplement of paper PMC11208160.

assay: recombinant UMI read abundance after kanamycin selection (control-corrected) (log10(CPM+1)); higher = more efficient recombination; extreme values may be limits of the assay; sequences stand for … in AGTGCAGAGAAAATCGGCCAGTTTTCTCTGCCTGCAGTCCGCATGCCGTGGGACCCCTTGGGTTCTAACCTGTTGCCTAGATTTATGCAGCGGACTGCCTTTCTCCCAAAGTGATAAACCGG…AGGTTGGTTTCACT; site = the 11-nt donor
Description: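 Pooled E. coli donor-specificity screen for the IS621 bridge recombinase. Each library member carries a reprogrammed 11-nt donor and a full-length LE bridge RNA expressed in cis from the natural promoter, with a paired donor-binding loop (8-nt LDG + 4-nt RDG) and a target-binding loop fixed to T5. It is co-electroporated with a T5 target plasmid; recombinase is induced with 0.07 mM IPTG and recombinants are selected on kanamycin. UMIs are counted as CPM, averaged over two biological replicates and corrected by the unselected control. Molecule = full bridge RNA written as DNA, built from the T5 scaffold: LDG = donor specificity nt 1-8, RDG = reverse complement of nt 8-11.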
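Also: IS621 bridge recombinase in Escherichia coli cells against a fixed T5 target plasmid.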

In order of falling “recombinant UMI read abundance (log10)” value:
1. ACAGTCTCATGGACCGGTTTTCCCGGTAATCCGTATTTGGA (site ACAGTCTCTTC)  2.89
2. ACAGTGTCATGGACCGGTTTTCCCGGTAATCCGTATTTGCC (site ACAGTGTCTGG)  2.88
3. ACAGCATCATGGACCGGTTTTCCCGGTAATCCGTATTTGTA (site ACAGCATCTTA)  2.85
4. ACAGTAGCATGGACCGGTTTTCCCGGTAATCCGTATTTGCA (site ACAGTAGCTTG)  2.85
5. ACAGAGACATGGACCGGTTTTCCCGGTAATCCGTATTTGCG (site ACAGAGACTCG)  2.84
6. ACAGTATCATGGACCGGTTTTCCCGGTAATCCGTATTTGCT (site ACAGTATCTAG)  2.8
7. ACATACGCATGGACCGGTTTTCCCGGTAATCCGTATTTGGC (site ACATACGCTGC)  2.78
8. ACATGATCATGGACCGGTTTTCCCGGTAATCCGTATTTGCA (site ACATGATCTTG)  2.74
9. ACATGAACATGGACCGGTTTTCCCGGTAATCCGTATTTGAC (site ACATGAACTGT)  2.71
10. ACAGTAGCATGGACCGGTTTTCCCGGTAATCCGTATTTGCA (site ACAGTAACTTG)  2.58
11. ACAGTTTCATGGACCGGTTTTCCCGGTAATCCGTATTTGCA (site ACAGTATCTTG)  2.55
12. ACCAGCTCATGGACCGGTTTTCCCGGTAATCCGTATTTGTC (site ACCAGCTCTGA)  2.47
13. ACAGTTTCATGGACCGGTTTTCCCGGTAATCCGTATTTGCA (site ACAGTCTCTTG)  2.43
14. ACATTATCATGGACCGGTTTTCCCGGTAATCCGTATTTGAA (site ACATTATCTTT)  2.38
15. ACAGTATCATGGACCGGTTTTCCCGGTAATCCGTATTTGCT (site ACAGTATCTGG)  2.29
16. ACCAATTCATGGACCGGTTTTCCCGGTAATCCGTATTTGCC (site ACCAATTCTGG)  2.25
17. ACAGTTTCATGGACCGGTTTTCCCGGTAATCCGTATTTGCA (site ACAGTTTCTTG)  2.24
18. ACAGTATCATGGACCGGTTTTCCCGGTAATCCGTATTTGCT (site ACAGTATCTTG)  2.22
19. ACAGAGACATGGACCGGTTTTCCCGGTAATCCGTATTTGCG (site CCAGAGACTCG)  2.19
20. ACCAGAACATGGACCGGTTTTCCCGGTAATCCGTATTTGAG (site ACCAGAACTCT)  2.19
21. ACAGAGACATGGACCGGTTTTCCCGGTAATCCGTATTTGCG (site TCAGAGACTCG)  2.18
22. ACAGTGTCATGGACCGGTTTTCCCGGTAATCCGTATTTGCC (site ACAGTATCTTG)  2.05
23. ACCATATCATGGACCGGTTTTCCCGGTAATCCGTATTTGTC (site ACCATATCTGA)  2.03
24. ACAGTAGCATGGACCGGTTTTCCCGGTAATCCGTATTTGCA (site ACAGTATCTTG)  2
25. ACAGTGGCATGGACCGGTTTTCCCGGTAATCCGTATTTGCG (site ACAGTGGCTCG)  1.93
26. ACCAATTCATGGACCGGTTTTCCCGGTAATCCGTATTTGCC (site CCCAATTCTGG)  1.91
27. ACAGTTGCATGGACCGGTTTTCCCGGTAATCCGTATTTGCA (site ACAGTTGCTTG)  1.81
28. ACATCTACATGGACCGGTTTTCCCGGTAATCCGTATTTGAG (site ACATCTACTCT)  1.67
29. ACATTGGCATGGACCGGTTTTCCCGGTAATCCGTATTTGTT (site ACATTGGCTAA)  1.53
30. ACAGTTTCATGGACCGGTTTTCCCGGTAATCCGTATTTGCA (site ACAGTGTCTTG)  1.52
31. ACAGATACATGGACCGGTTTTCCCGGTAATCCGTATTTGCC (site ACAGATACTGG)  1.19
32. ACAGAGACATGGACCGGTTTTCCCGGTAATCCGTATTTGCG (site GCAGAGACTCG)  1.18
33. ACATGATCATGGACCGGTTTTCCCGGTAATCCGTATTTGCA (site ACAGTATCTTG)  1.14
34. ACAGTATCATGGACCGGTTTTCCCGGTAATCCGTATTTGCT (site ACAGTATCTCG)  1.11
35. ACAGGGCCATGGACCGGTTTTCCCGGTAATCCGTATTTGCT (site ACAGGGCCTAG)  1.1
36. ACAGGTCCATGGACCGGTTTTCCCGGTAATCCGTATTTGGC (site ACAGGTCCTGC)  1.02
37. ACATGCGCATGGACCGGTTTTCCCGGTAATCCGTATTTGGT (site ACATGCGCTAC)  1.02
38. ACATCTACATGGACCGGTTTTCCCGGTAATCCGTATTTGTA (site ACATCTACTTA)  0.989
39. ACATCTTCATGGACCGGTTTTCCCGGTAATCCGTATTTGTG (site ACATCTTCTCA)  0.969
40. ACCAATTCATGGACCGGTTTTCCCGGTAATCCGTATTTGCC (site TCCAATTCTGG)  0.66
41. ACCAATTCATGGACCGGTTTTCCCGGTAATCCGTATTTGCC (site GCCAATTCTGG)  0.507
42. ACAGCGCCATGGACCGGTTTTCCCGGTAATCCGTATTTGTT (site ACAGCGCCTAA)  0.431
43. ACATCGACATGGACCGGTTTTCCCGGTAATCCGTATTTGTG (site ACATCAACTCA)  0.397
44. ACATCGACATGGACCGGTTTTCCCGGTAATCCGTATTTGTG (site ACATCGACTCA)  0.245
45. ACATCTACATGGACCGGTTTTCCCGGTAATCCGTATTTGAG (site ACATCTACTCC)  0.184
46. ACCAGAACATGGACCGGTTTTCCCGGTAATCCGTATTTGAG (site ACTAGAACTCT)  0.155
47. ACATCTCCATGGACCGGTTTTCCCGGTAATCCGTATTTGTG (site ACATCTGCTCA)  0.0416
48. ACATCTACATGGACCGGTTTTCCCGGTAATCCGTATTTGAG (site ACATCTACTCA)  0.0306
49. ACATCTACATGGACCGGTTTTCCCGGTAATCCGTATTTGAG (site ACATCTACTCG)  0.0217
50. ACATCGACATGGACCGGTTTTCCCGGTAATCCGTATTTGTG (site ACATCCACTCA)  0.0171
51. ACATCTCCATGGACCGGTTTTCCCGGTAATCCGTATTTGTG (site ACATCTACTCA)  0.0166
52. ACATTGCCATGGACCGGTTTTCCCGGTAATCCGTATTTGGG (site ACATTGCCTCC)  0.0159
53. ACATCTTCATGGACCGGTTTTCCCGGTAATCCGTATTTGTG (site ACATCTACTCA)  0.0158
54. ACATCTTCATGGACCGGTTTTCCCGGTAATCCGTATTTGTG (site ACATCTCCTCA)  0.0151
55. ACATCTACATGGACCGGTTTTCCCGGTAATCCGTATTTGTA (site ACATCTACTCA)  0.0123
56. ACATCTACATGGACCGGTTTTCCCGGTAATCCGTATTTGTA (site ACATCTACTAA)  0.0109
57. ACATCTCCATGGACCGGTTTTCCCGGTAATCCGTATTTGTG (site ACATCTCCTCA)  0.00967
58. ACATCGACATGGACCGGTTTTCCCGGTAATCCGTATTTGTG (site ACATCTACTCA)  0.00913
59. ACATCTCCATGGACCGGTTTTCCCGGTAATCCGTATTTGTG (site ACATCTTCTCA)  0.00664
60. ACAGCATCATGGACCGGTTTTCCCGGTAATCCGTATTTGTA (site ACAGTATCTTG)  0
61. ACAGTAGCATGGACCGGTTTTCCCGGTAATCCGTATTTGCA (site ACAGTACCTTG)  0
62. ACAGTCTCATGGACCGGTTTTCCCGGTAATCCGTATTTGGA (site ACAGTATCTTG)  0
63. ACAGTTGCATGGACCGGTTTTCCCGGTAATCCGTATTTGCA (site ACAGTATCTTG)  0
64. ACATCTACATGGACCGGTTTTCCCGGTAATCCGTATTTGTA (site ACATCTACTGA)  0
65. ACATCTTCATGGACCGGTTTTCCCGGTAATCCGTATTTGTG (site ACATCTGCTCA)  0
66. ACATTACCATGGACCGGTTTTCCCGGTAATCCGTATTTGGA (site ACATTACCTTC)  0
67. ACATTATCATGGACCGGTTTTCCCGGTAATCCGTATTTGAA (site ACAGTATCTTG)  0
68. ACCAGAACATGGACCGGTTTTCCCGGTAATCCGTATTTGAG (site ACAAGAACTCT)  0
69. ACCAGAACATGGACCGGTTTTCCCGGTAATCCGTATTTGAG (site ACGAGAACTCT)  0
70. ACCATATCATGGACCGGTTTTCCCGGTAATCCGTATTTGTC (site CCCATATCTGA)  0
71. ACCATATCATGGACCGGTTTTCCCGGTAATCCGTATTTGTC (site GCCATATCTGA)  0
72. ACCATATCATGGACCGGTTTTCCCGGTAATCCGTATTTGTC (site TCCATATCTGA)  0
